# Reference: patent publication US9180136B2, “Identification and treatment of cancer subsets” (The Translational Genomics Research Institute, priority 2010, dated 2015)
# Counter-ions that a name gives are not always drawn.
# How the values were obtained:
# SCC-4 cells = assay: TUNEL apoptosis staining of SCC-4 cells treated with IP6; format: cell-based, human; settings: SCC-4 cells treated with IP6 vs untreated, FIG. 8
# From the text: FIG. 8 depicts increased apoptosis in a squamous cell carcinoma cell line treated with IP6 (right panel B) relative to the same line without treatment (left panel A), and the DNA blue fluorescence was produced by DAPI probe. Apoptotic nuclei red fluorescence was produced through TUNEL assay; IP6 is an inositol metabolite that is dependant upon INPP5A activity for its synthesis (See FIG. 7). Addition of exogenous IP6 inhibits the cell proliferation brought about by INPP5A loss and drives cells towards a differentiated phenotype. […] Increased TUNEL staining (red) is seen in the IP6 treated cells.
# [1] = system: normal human keratinocytes; assay: TUNEL apoptosis staining of normal human keratinocytes at different confluence treated with IP6; format: cell-based; settings: for apoptosis (TUNEL staining): 2 mM IP6 for 24 hours
# Method: FIG. 12 depicts the effect of IP6 treatment on confluent normal human keratinocytes. […] The DNA blue fluorescence was produced by DAPI probe. Apoptotic nuclei red fluorescence was produced through TUNEL assay; FIG. 13 depicts the effect of IP6 treatment on 70% confluent keratinocytes. […] The DNA blue fluorescence was produced by DAPI probe. […] Normal human keratinocytes were harvested at various stages of confluency. Cell cultures were assessed by morphological evaluation of the cell and segregated into distinct culture confluence intervals at or near the plateau phase of growth, generally: lower confluence (L), 70-80%; medium confluence (M), 80-90%, and higher confluence (H), >95%. INPP5A mRNA expression at selected culture confluence levels was evaluated by qPCR.
# SCC-15 = assay: CellTiter-Glo luminescent cell viability after IP6 treatment; format: cell-based, human; settings: SCC-15, 0.31-5 mM IP6, 72 hours, FIG. 18
# Method: (§1) The human head and neck squamous cell carcinoma lines evaluated were: SCC-4, SCC-9 and SCC-15. The colorectal cancer cell line HT-29 and the kidney embryonic line HEK293, purchased from the American Type Culture Collection (ATCC, Manassas, Va.), were used for comparison. Squamous cell lines were maintained in Dulbecco's Modified Eagle Medium: Nutrient Mixture F12 (DMEM/F12), with 10% Fetal bovine serum (FBS), 2 mM GlutaMAX, 25 mM Hepes buffer, 100 U/ml penicillin and 100 μg/ml streptomycin. HEK293 and HT-29 were cultured in DMEM and RPMI-1640 medium respectively, with the supplements mentioned above. All media and cell culture supplements were purchased from Invitrogen Corporation (Carlsbad, Calif.). Sub-confluent, rapidly growing cells were plated at a density of 600 cells/20 μL/well in a clear bottom 384-well plate with opaque walls, suitable for luminescent measurements. The next day, IP6 (Inositol hexakisphosphate, phytic acid, dipotassium salt, Sigma-Aldrich, St Louis, Mo.) solutions in culture medium, corresponding to the following concentrations: 0.3125, 0.625, 1.25, 2.5 and 5 mM, were prepared, and were stored at 4° C. for 4-6 h. Shortly before treatment, IP6 solutions were centrifuged to remove any precipitates that IP6 forms with calcium chloride. Four wells were treated for each condition. […] (San Luis Obispo, Calif.), following the manufacturer's instruction. Briefly, the assay buffer and substrate were equilibrated at room temperature, and mixed thoroughly. Without removing medium from wells, the assay reagent was added into each well (1:1, volume:volume of medium per well) and the content was mixed for 2 minutes on an orbital shaker to induce cell lysis. The plate was incubated at room temperature for 10 minutes, and the luminescence was read on a Perkin Elmer Victor^3 microplate reader. Data from each set of four replicates was averaged and the standard deviation was calculated. […]
# SCC-4 = assay: as above; format: cell-based, human; settings: SCC-4, 0.31-5 mM IP6, 72 hours, FIG. 18
# Method: as §1
# SCC-9 = assay: as above; format: cell-based, human; settings: SCC-9, 0.31-5 mM IP6, 72 hours, FIG. 18
# Method: as §1
# [2] = system: colorectal adenocarcinoma (HT-29); assay: as above; format: cell-based; settings: HT-29, 0.31-5 mM IP6, 72 hours, FIG. 18
# Method: (§2) The human head and neck squamous cell carcinoma lines evaluated were: SCC-4, SCC-9 and SCC-15. The colorectal cancer cell line HT-29 and the kidney embryonic line HEK293, purchased from the American Type Culture Collection (ATCC, Manassas, Va.), were used for comparison. Squamous cell lines were maintained in Dulbecco's Modified Eagle Medium: Nutrient Mixture F12 (DMEM/F12), with 10% Fetal bovine serum (FBS), 2 mM GlutaMAX, 25 mM Hepes buffer, 100 U/ml penicillin and 100 μg/ml streptomycin. HEK293 and HT-29 were cultured in DMEM and RPMI-1640 medium respectively, with the supplements mentioned above. All media and cell culture supplements were purchased from Invitrogen Corporation (Carlsbad, Calif.). Sub-confluent, rapidly growing cells were plated at a density of 600 cells/20 μL/well in a clear bottom 384-well plate with opaque walls, suitable for luminescent measurements. The next day, IP6 (Inositol hexakisphosphate, phytic acid, dipotassium salt, Sigma-Aldrich, St Louis, Mo.) solutions in culture medium, corresponding to the following concentrations: 0.3125, 0.625, 1.25, 2.5 and 5 mM, were prepared, and were stored at 4° C. for 4-6 h. […] The plate was incubated at room temperature for 10 minutes, and the luminescence was read on a Perkin Elmer Victor^3 microplate reader. Data from each set of four replicates was averaged and the standard deviation was calculated. […]
# [3] = system: transformed normal human embryonic kidney cell line (HEK-293); assay: as above; format: cell-based; settings: HEK-293, 0.31-5 mM IP6, 72 hours, FIG. 18
# Method: as §2
compound,measurement,setting,value
"O=P(O)(O)O[C@H]1[C@H](OP(=O)(O)O)[C@@H](OP(=O)(O)O)[C@H](OP(=O)(O)O)[C@@H](OP(=O)(O)O)[C@H]1OP(=O)(O)O [IP6, Inositol hexakisphosphate, phytic acid, dipotassium salt]",cell death by apoptosis (TUNEL staining),SCC-4 cells,significant cell death by apoptosis
same,apoptosis (TUNEL staining),"[1]; 70% confluent keratinocytes, FIG. 13",Greater apoptosis relative to background
same,apoptosis (TUNEL staining),"[1]; 100% confluent keratinocytes, FIG. 12",reduced apoptosis
same,selectivity for cells with reduced INPP5A expression,[1]; normal human keratinocytes at various stages of confluency,selective for cells with reduced INPP5A expression
same,proportion of cells present after treatment relative to untreated cells,SCC-15,"dose-dependent reduction in number, which is much greater for the SCC cells"
same,proportion of cells present after treatment relative to untreated cells,SCC-4,"dose-dependent reduction in number, which is much greater for the SCC cells"
same,proportion of cells present after treatment relative to untreated cells,SCC-9,"dose-dependent reduction in number, which is much greater for the SCC cells"
same,proportion of cells present after treatment relative to untreated cells,[2],dose-dependent reduction in number
same,proportion of cells present after treatment relative to untreated cells,[3],dose-dependent reduction in number
